Measured values reported in patent US20230279482A1, “COMPOSITIONS, METHODS AND USES FOR QUANTIFYING TRANSCRIPTION AND BIOSENSING OF SMALL MOLECULES USING A NOVEL TYPE VI CRISPR-CAS ASSAY” (THE REGENTS OF THE UNIVERSITY OF COLORADO, A BODY CORPORATE, priority 2020, published 2023).
Where two headings read alike, the source gives them in different places.

How the values were obtained:
[1] = system: guanine riboswitch xpt/pbuE*6U; assay: SPRINT compound screen on guanine riboswitch; assay type: biochemical; conditions: 1 μM, FIG. 10
Description: Briefly, the transcriptional response of the guanine riboswitch xpt/pbuE*6U to 30 different compounds was measured at two different concentrations each (FIG. 9A and FIG. 10). The concentrations used were 10 μM and 1 mM for most compounds. The signal that was obtained from control experiments with the solvents DMSO or water was subtracted from all values.

[2] = system: bacteria; conditions: cited from earlier work
[3] = system: guanine riboswitch; conditions: as low as; cited from earlier work
[4] = system: SPRINT assay without riboswitch (constitutively transcribed Cas13a target); assay: SPRINT control screen with constitutive promoter template (PAINS identification); conditions: FIG. 9B
Description: The master mix was gently mixed by pipetting up and down and incubated at 37° C. for 15 minutes to allow binding of crRNA to Cas13a protein and the microwell plate was prepared by adding 3 μL of 10× ligand to the wells. The reaction was initiated by addition of rNTPs to the master mix to a concentration of 20 μM and then 27 μL of the complete master mix were added to each well and pipetted up and down to mix with the ligand in the wells. The plate was covered with an optical adhesive film to prevent evaporation of the sample while taking fluorescence measurements in a plate reader that was preheated to 37° C.

[5] = molecular target: T1, tetR (Escherichia coli, UniProt P04483); assay: biochemical
T1 sequence (P04483 whole entry): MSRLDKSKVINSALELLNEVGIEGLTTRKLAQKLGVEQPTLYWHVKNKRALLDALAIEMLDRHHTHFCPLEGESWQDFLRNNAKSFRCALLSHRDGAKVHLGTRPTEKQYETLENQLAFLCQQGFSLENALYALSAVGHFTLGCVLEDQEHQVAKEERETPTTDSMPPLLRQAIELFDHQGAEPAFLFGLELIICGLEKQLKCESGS
Description: In other exemplary methods, reactions with allosteric transcription factors (aTFs), ROSALIND reagent buffer (10× buffer containing, for assays contemplated herein, but not limited to: 400 mM Tris-HCl, pH 8.0, 200 mM NaCl, 20 mM spermidine, 100 mM DTT and 80 mM MgCl2) were used. The buffer was prepared fresh or stored as single-use aliquots at −80° C. […] The final concentration of the aTF monomers was either 2.5 μM tetR or 10 μM smtB. The master mix was incubated for 15 minutes at 37° C. which allows the aTFs to bind to the operator sequence.
In another exemplary method, bacterial transcription can be regulated by allosteric transcription factors (aTFs), such as activators or repressors, which have previously been used for small molecule detection. Another system (“ROSALIND”) enabled rapid detection of compounds via aTFs. […] The ROSALIND buffer system differs from the SPRINT or SHERLOCK buffer. Therefore, it was tested whether aTF-based ROSALIND reactions could be integrated with the Cas13a-based detection method. To simplify the system, the inorganic pyrophosphatase (IPPase) enzyme was first removed from the ROSALIND system. IPPase was used in transcription reactions to degrade pyrophosphate which was a reaction product of the RNA polymerase and can inhibit the reaction. […] Adaptions included reducing the concentrations of rNTP from 2.85 mM to 40 μM, DNA template from 25 to 15 nM, and T7 RNAP from 10 to 6.7 ng/μL.
The responses of the de-repressors tetR and smtB were measured with SPRINT.

[6] = molecular target: T1, tetR; conditions: read-out: previously reported range; cited from earlier work
[7] = molecular target: T2, bacterial RNAP (Escherichia coli, UniProt P0A8V2); assay: SPRINT rifampicin titration with constitutive promoter; assay type: biochemical, E. coli
Target sequence in this assay (P0A8V2 whole entry): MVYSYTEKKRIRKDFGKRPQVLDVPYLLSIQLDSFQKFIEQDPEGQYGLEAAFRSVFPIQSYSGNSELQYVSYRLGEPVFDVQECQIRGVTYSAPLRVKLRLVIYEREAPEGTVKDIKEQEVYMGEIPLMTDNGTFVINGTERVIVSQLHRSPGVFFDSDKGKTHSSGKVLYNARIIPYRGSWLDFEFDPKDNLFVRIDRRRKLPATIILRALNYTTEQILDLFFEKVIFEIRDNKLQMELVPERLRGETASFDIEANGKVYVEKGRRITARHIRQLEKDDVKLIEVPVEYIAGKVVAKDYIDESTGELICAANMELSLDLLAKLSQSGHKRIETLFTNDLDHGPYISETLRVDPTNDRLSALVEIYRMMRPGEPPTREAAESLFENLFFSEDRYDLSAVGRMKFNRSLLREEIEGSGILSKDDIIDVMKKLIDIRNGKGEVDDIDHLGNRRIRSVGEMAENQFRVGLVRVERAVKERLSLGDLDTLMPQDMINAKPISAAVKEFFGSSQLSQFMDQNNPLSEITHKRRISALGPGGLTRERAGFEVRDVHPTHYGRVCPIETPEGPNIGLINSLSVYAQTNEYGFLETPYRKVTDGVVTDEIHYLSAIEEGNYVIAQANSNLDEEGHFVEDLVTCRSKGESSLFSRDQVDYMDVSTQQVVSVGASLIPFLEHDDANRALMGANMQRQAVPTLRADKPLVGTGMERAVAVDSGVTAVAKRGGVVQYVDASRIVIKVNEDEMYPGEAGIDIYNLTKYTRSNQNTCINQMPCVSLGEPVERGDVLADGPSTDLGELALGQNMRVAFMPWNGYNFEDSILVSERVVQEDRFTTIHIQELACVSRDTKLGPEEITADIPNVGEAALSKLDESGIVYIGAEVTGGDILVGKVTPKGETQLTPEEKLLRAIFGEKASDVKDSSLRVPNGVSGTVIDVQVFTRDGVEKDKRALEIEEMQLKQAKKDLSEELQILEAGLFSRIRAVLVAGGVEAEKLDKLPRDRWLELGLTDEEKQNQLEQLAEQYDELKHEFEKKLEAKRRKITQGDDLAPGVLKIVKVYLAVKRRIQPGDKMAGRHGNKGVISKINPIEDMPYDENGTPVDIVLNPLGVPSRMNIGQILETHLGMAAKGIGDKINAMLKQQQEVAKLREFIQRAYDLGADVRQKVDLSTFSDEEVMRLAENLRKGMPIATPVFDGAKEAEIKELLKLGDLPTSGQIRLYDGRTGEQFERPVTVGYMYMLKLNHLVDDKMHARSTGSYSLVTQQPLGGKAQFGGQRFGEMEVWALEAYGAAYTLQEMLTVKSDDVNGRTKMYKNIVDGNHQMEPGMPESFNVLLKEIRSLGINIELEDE
Target sequence in this assay (P0A8T7 whole entry partner): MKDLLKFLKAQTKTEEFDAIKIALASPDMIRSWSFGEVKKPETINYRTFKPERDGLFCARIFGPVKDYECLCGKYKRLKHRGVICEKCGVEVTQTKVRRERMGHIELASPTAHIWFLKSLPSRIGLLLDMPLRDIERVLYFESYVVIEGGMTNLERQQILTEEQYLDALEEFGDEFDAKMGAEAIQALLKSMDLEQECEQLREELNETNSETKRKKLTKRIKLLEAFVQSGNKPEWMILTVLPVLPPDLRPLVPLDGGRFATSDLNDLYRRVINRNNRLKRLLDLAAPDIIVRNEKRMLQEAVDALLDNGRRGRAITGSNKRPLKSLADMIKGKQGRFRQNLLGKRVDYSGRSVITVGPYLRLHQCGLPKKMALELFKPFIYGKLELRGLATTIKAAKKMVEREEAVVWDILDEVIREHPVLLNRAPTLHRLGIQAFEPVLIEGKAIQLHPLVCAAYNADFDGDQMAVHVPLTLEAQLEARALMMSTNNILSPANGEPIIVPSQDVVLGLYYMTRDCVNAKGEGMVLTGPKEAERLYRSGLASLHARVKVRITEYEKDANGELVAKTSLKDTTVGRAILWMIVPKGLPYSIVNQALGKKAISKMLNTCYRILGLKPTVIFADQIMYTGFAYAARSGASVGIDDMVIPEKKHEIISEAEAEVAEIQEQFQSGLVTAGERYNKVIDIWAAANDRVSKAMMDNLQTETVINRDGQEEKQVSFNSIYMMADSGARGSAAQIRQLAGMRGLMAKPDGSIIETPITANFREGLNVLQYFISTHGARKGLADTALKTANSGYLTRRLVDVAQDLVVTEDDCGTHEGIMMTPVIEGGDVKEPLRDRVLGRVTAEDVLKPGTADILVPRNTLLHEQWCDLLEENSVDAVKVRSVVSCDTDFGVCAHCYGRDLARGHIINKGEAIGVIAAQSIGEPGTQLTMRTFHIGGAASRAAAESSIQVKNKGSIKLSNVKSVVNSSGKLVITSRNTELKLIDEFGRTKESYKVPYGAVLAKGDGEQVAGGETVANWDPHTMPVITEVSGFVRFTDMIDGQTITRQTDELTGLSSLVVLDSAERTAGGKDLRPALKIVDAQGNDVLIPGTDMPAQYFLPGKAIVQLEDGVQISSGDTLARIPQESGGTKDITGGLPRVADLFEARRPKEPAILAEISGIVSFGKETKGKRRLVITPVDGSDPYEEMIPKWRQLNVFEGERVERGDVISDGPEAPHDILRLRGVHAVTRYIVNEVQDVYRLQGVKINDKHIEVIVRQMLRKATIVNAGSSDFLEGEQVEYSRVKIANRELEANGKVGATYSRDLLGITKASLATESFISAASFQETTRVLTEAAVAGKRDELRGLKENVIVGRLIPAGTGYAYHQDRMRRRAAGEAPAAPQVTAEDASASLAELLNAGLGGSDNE
Target sequence in this assay (P0A7Z4 whole entry partner): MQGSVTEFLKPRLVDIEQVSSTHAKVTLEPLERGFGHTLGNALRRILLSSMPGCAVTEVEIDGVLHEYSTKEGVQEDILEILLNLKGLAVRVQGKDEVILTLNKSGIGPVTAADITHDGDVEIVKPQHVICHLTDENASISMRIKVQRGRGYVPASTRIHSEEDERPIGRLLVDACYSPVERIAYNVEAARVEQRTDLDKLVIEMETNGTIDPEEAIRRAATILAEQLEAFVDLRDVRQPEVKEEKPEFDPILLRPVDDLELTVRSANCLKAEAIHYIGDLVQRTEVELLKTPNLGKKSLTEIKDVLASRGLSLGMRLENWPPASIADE
Target sequence in this assay (P0A800 whole entry partner): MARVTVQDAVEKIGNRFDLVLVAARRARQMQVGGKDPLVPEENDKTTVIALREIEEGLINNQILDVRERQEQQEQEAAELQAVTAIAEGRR
Target sequence in this assay (P00579 whole entry partner): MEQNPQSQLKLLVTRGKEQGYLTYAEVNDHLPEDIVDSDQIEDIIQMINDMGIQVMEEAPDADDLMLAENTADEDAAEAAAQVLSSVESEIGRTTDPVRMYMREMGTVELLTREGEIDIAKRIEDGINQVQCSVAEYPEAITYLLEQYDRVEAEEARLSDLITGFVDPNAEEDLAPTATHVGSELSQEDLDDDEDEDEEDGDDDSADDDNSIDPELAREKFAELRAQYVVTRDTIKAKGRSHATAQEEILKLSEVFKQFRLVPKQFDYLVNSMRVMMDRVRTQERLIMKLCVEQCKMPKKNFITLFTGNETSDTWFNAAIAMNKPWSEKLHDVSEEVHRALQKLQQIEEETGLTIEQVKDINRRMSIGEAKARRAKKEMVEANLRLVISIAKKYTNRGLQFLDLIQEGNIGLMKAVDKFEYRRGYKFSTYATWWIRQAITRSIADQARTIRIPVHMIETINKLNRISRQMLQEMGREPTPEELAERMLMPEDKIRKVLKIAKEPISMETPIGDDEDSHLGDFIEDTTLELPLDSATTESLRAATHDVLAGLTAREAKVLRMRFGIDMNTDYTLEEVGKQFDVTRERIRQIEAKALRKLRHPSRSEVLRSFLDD

[8] = molecular target: T2, bacterial RNAP; conditions: cited from earlier work

## Nc1nc(N)c(N)c(=O)[nH]1 [2,5,6-TAP]
[1]
  transcriptional activation at low concentration: only slightly activated transcription
[2]
  concentration with bactericidal properties: 8 mM
[3]
  concentration at which it binds the guanine riboswitch: ≥ 100 nM
[4]; 100 μM, FIG. 10
  effect on enzymatic activity of the SPRINT assay at high concentration: completely shut down enzymatic activity
[4]; constitutive promoter template
  interference with SPRINT assay (PAINS): interfering compounds

## Cc1c2c(c(O)c3c(O)cccc13)C(=O)[C@]1(O)C(=O)C(C(N)=O)=C(O)[C@@H](N(C)C)[C@@H]1C2 [anhydrotetracycline]
[5]
  EC50: 1900 ± 200 nM
[6]
  EC50: 1000 to 2500 nM

## CO[C@H]1/C=C/O[C@@]2(C)Oc3c(C)c(O)c4c(O)c(c(/C=N/N5CCN(C)CC5)c(O)c4c3C2=O)NC(=O)/C(C)=C\C=C\[C@H](C)[C@H](O)[C@@H](C)[C@@H](O)[C@@H](C)[C@H](OC(C)=O)[C@@H]1C [rifampicin]
[7]
  IC50: 5.9 ± 0.6 nM
[8]
  Kd: 3 nM
